Results reported in patent US20250230138A1, “COMPOUNDS HAVING A T-STRUCTURE FORMED BY AT LEAST FOUR CYCLES FOR USE IN THE TREATMENT OF CANCER AND OTHER INDICATIONS” (TheRas, Inc., priority 2022, published 2025).
pIC50: −log10 of the molar value. Like-named read-outs stand apart in the source and are kept apart here.

Assays:
[1] = system: pAKT in BT474 cells; test: Cell-based pAKT HTRF assay in BT474 cells; conditions: BT474 cells, 4 hr incubation, read-out: pAKT inhibition IC50 in BT474 cells
Summary of the method: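 pAKT was measured by HTRF after a 4 hr compound exposure in BT474 cells (DMEM, 10% FBS, 0.25% DMSO), using 9 concentrations from 3 μM in 3-fold steps. Cell lysates were incubated with the Eu cryptate/d2 antibody pair at room temperature for 4 to 24 h. The plate was then read at 320 nm excitation and 615 nm emission.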

[2] = target: Cys242 in human PIK3CA (157-299) (Homo sapiens (Human), UniProt P42336); test: Covalent modification assay using MALDI-TOF MS; assay type: biochemical; conditions: 4 h reaction time point
Sequence of Cys242 in human PIK3CA (157-299) (P42336 157-299): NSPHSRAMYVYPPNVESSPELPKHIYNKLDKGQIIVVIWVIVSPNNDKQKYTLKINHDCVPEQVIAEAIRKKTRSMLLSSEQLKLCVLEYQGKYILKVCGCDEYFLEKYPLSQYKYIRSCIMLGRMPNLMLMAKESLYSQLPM
Summary of the method: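 Covalent adduct formation was read by linear-mode MALDI-TOF with sinapinic acid matrix, reported as modified-protein peak height divided by total protein peak heights. Reactions held PIK3CA (157-299) at 1 or 3.33 μM in HEPES/NaCl/MgCl2 buffer, pH 7.3, sampled after 15 min to 4 h at room temperature.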

[3] = 1 μM protein target, 1:5 protein to compound ratio (compounds 853-1279)
[4] = 3.33 μM protein target, 1:7.5 protein to compound ratio (compounds 1-852)
[5] = Homo sapiens, BT-474, Compounds 10-999
[6] = Homo sapiens, BT-474, Compounds 1000-1279

Row | SMILES | % of modification [2, 3] | pIC50 ([1]; Compounds 10-999) | % of modification [2, 4] | also measured
1 | C=CC(=O)N1CCc2nc(-c3nc(-c4cnc5c(c4)CCN(C)C5)c4ccsc4c3-c3c(F)cc(F)cc3OC(C)C)sc2C1 [Compound 518] |  | > 7.00 | A (percent of modification of PIK3CA protein ≥75%) | 
2 | C=CC(=O)N1CCc2nc(-c3nc(-c4ccc5c(c4)CCNC5)c4c(F)csc4c3-c3ccc(F)cc3OC)sc2C1 [Compound 274, 1-[2-[3-fluoro-7-(4-fluoro-2-methoxy-phenyl)-4-(1,2,3,4-tetrahydroisoquinolin-6-yl)thieno[3,2-c]pyridin-6-yl]-6,7-dihydro-4H-thiazolo[5,4-c]pyridin-5-yl]prop-2-en-1-one] |  |  | A (percent of modification of PIK3CA protein ≥75%) | pIC50 [1, 5]: 6.00 to 7.00
3 | C=CC(=O)N1CCn2nc(-c3nc(-c4ccc5c(cnn5C)c4)c4ccsc4c3-c3c(F)cc(F)cc3OCCOC)cc2[C@H]1C [Compound 758, 1-((R)-2-((S)-7-(2,4-difluoro-6-(2-methoxyethoxy)phenyl)-4-(1-methyl-1H-indazol-5-yl)thieno[3,2-c]pyridin-6-yl)-4-methyl-6,7-dihydropyrazolo[1,5-a]pyrazin-5(4H)-yl)prop-2-en-1-one] |  | > 7.00 | A (percent of modification of PIK3CA protein ≥75%) | 
4 | C=CC(=O)N1Cc2cc(-c3nc(-c4cnn(C)c4)c4ccsc4c3-c3c(F)cc(F)cc3OCCO)nn2C[C@H]1C [Compound 673] |  | 6.00 to 7.00 | D (percent of modification <25%) | 
5 | C=CC(=O)N1CC(n2cc(-c3nc(-c4ccn(C)c(=O)c4)c4ccsc4c3-c3ccc(F)cc3OC)cn2)C1 [Compound 179] |  | > 7.00 | A (percent of modification of PIK3CA protein ≥75%) | 
6 | C=CC(=O)N1CCc2ncc(-c3nc(-c4ccc5nn(C)cc5c4)c4ccsc4c3-c3c(F)cc(F)cc3OCCOC)cc2C1 [Compound 945] | A (percent of modification of PIK3CA protein ≥75%) | > 7.00 |  | 
7 | C=CC(=O)N1CC(n2cc(-c3nc(C4CCN(S(C)(=O)=O)CC4)c4ccsc4c3-c3ccc(F)cc3OC)cn2)C1 [Compound 296] |  | 5.52 to 6.00 | B (50%<percent of modification <75%) | 
8 | C=CC(=O)N1CC[C@H](n2cc(-c3nc(-c4cnn(C)c4)c4ccsc4c3-c3c(F)cc(F)cc3OCCOC)cn2)C1 [Compound 368] |  | 6.00 to 7.00 | A (percent of modification of PIK3CA protein ≥75%) | 
9 | C=CC(=O)N1Cc2cc(-c3nc(-c4cn(C)cn4)c4ccsc4c3-c3c(F)cc(F)cc3OCC(C)O)nn2C(C)C1 (stereo not drawn) [Compound 639] |  | > 7.00 | A (percent of modification of PIK3CA protein ≥75%) | 
10 | C=CC(=O)N1Cc2cc(-c3nc(-c4ccc5nn(C)cc5c4)c4ccsc4c3-c3c(F)cc(F)cc3OCC(C)(C)O)nn2[C@@H](C)C1 [Compound 881] | A (percent of modification of PIK3CA protein ≥75%) | > 7.00 |  | 
11 | C=CC(=O)N1CCn2nc(-c3nc(-c4ccc5c(c4)CCN(C(C)C)C5)c4ccsc4c3-c3ccc(F)cc3OCCOC)cc2C1 [Compound 190, 1-[2-[7-[4-fluoro-2-(2-methoxyethoxy)phenyl]-4-(2-isopropyl-3,4-dihydro-1H-isoquinolin-6-yl)thieno[3,2-c]pyridin-6-yl]-6,7-dihydro-4H-pyrazolo[1,5-a]pyrazin-5-yl]prop-2-en-1-one] |  |  | A (percent of modification of PIK3CA protein ≥75%) | pIC50 [1, 5]: > 7.00
12 | C=CC(=O)N1CCn2nc(-c3nc(-c4ccc(=O)n(C)c4)cnc3-c3ccc(F)cc3OC(C)C)cc2C1 [Compound 273, 5-[5-(4-fluoro-2-isopropoxy-phenyl)-6-(5-prop-2-enoyl-6,7-dihydro-4H-pyrazolo[1,5-a]pyrazin-2-yl)pyrazin-2-yl]-1-methyl-pyridin-2-one] |  |  | C (25%≤percent of modification <50%) | pIC50 [1, 5]: < 5.52
13 | C=CC(=O)N1CCc2ncc(-c3nc(-c4ccc(=O)n(C(F)F)c4)c4ccsc4c3-c3c(F)cc(F)cc3OC(C)C)cc2C1 [Compound 335] |  | > 7.00 | A (percent of modification of PIK3CA protein ≥75%) | 
14 | C=CC(=O)N1Cc2cc(-c3nc(-c4ccc5c(c4)CCN(C)C5)c4ccsc4c3-c3c(F)cc(F)cc3OC[C@@H](C)O)nn2C[C@H]1C [Compound 606] |  | 5.52 to 6.00 | D (percent of modification <25%) | 
15 | C=C(F)C(=O)N1CCn2nc(-c3nc(-c4cnc5c(c4)CN(C)CC5)c4ccsc4c3-c3ccc(F)cc3OC(C)C)cc2C1 [Compound 306] |  | > 7.00 | B (50%<percent of modification <75%) | 
16 | C=CC(=O)N1CCn2nc(-c3nc(-c4ccc(OCCN(C)C)cc4F)c4ccsc4c3-c3c(F)cc(F)cc3OCCOC)cc2C1C (stereo not drawn) [Compound 1091] | A (percent of modification of PIK3CA protein ≥75%) |  |  | pIC50 ([1]; Compounds 1000-1279): > 7.00
17 | C=CC(=O)N1CCn2nc(-c3nc(-c4ccc5ncn(C)c(=O)c5c4)c4ccsc4c3-c3c(F)cc(F)cc3OCCO)cc2C1C (stereo not drawn) [Compound 900] | A (percent of modification of PIK3CA protein ≥75%) | > 7.00 |  | 

More lines, main results first:

Row | % of modification [2, 3] | pIC50 ([1]; Compounds 10-999) | SMILES | % of modification [2, 4] | also measured
18 | C (25%≤percent of modification <50%) |  | C=CC(=O)N1CCn2nc(-c3nc(-c4ccc5c(cnn5C)c4)c4ccsc4c3-c3c(F)cc(F)cc3OC)cc2C1C (stereo not drawn) [Compound 1111] |  | pIC50 ([1]; Compounds 1000-1279): 6.00 to 7.00
19 | B (50%<percent of modification <75%) |  | C=CC(=O)N1Cc2cc(-c3nc(C45CC(C(=O)NC)(C4)C5)c4ccsc4c3-c3c(F)cc(F)cc3OCCOC)nn2C[C@H]1C [Compound 1071, 3-((S)-6-((R)-5-acryloyl-6-methyl-4,5,6,7-tetrahydropyrazolo[1,5-a]pyrazin-2-yl)-7-(2,4-difluoro-6-(2-methoxyethoxy)phenyl)thieno[3,2-c]pyridin-4-yl)-N-methylbicyclo[1.1.1]pentane-1-carboxamide] |  | pIC50 [1, 6]: > 7.00
20 |  | > 7.00 | C=CC(=O)N1CCn2nc(-c3nc(-c4cnnc(C)c4)c4ccsc4c3-c3c(F)cc(F)cc3OCCOC)cc2C1C (stereo not drawn) [Compound 764] | A (percent of modification of PIK3CA protein ≥75%) | 
21 | D (percent of modification <25%) |  | C=CC(=O)N1CCc2ccc(-c3nc(-c4cnc(N(C)C)nc4)c4ccsc4c3-c3c(F)cc(F)cc3OCCOC)cc2C1 [Compound 1068] |  | pIC50 ([1]; Compounds 1000-1279): < 6.00
22 | B (50%<percent of modification <75%) |  | C=CC(=O)N1Cc2cc(-c3nc(C45CC(CN(C)C)(C4)C5)c4ccsc4c3-c3c(F)cc(F)cc3OCCOC)nn2C[C@H]1C [Compound 1168, 1-((6R)-2-(7-(2,4-difluoro-6-(2-methoxyethoxy)phenyl)-4-(3-((dimethylamino)methyl)bicyclo[1.1.1]pentan-1-yl)thieno[3,2-c]pyridin-6-yl)-6-methyl-6,7-dihydropyrazolo[1,5-a]pyrazin-5(4H)-yl)prop-2-en-1-one] |  | pIC50 [1, 6]: 6.00 to 7.00
23 |  | > 7.00 | C=CC(=O)N1CCn2nc(-c3nc(-c4cnc(C)nc4)c4ccsc4c3-c3c(F)cc(F)cc3OCCOC)cc2C1C (stereo not drawn) [Compound 792] | A (percent of modification of PIK3CA protein ≥75%) | 
24 | B (50%<percent of modification <75%) |  | C=CC(=O)N1CCn2nc(-c3nc(-c4ccc(=O)n(C5CN(C)C5)c4)c4ccsc4c3-c3c(F)cc(F)cc3OCCOC)cc2C1C (stereo not drawn) [Compound 1031] |  | pIC50 ([1]; Compounds 1000-1279): 6.00 to 7.00
